Experimental data from ChEMBL document CHEMBL1201862, “PubChem BioAssay data set” (2004).
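In this assay, cells in 96-well plates receive the compound at five concentrations for 48 hours. Endpoints are linearly interpolated between the surrounding concentrations. GI50: concentration for 50% inhibition of growth.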 Calls of active or inactive are those of the source. No stated cut-off is given here; in the data, active = GI50 up to about 1.1 µM and inactive = higher.

How the values were obtained:
Assay in all cases: NCI tumour cell line growth inhibition, 48 h
786-0 = tested on: 786-0
A498 = tested on: A498
A549 = tested on: A549
ACHN = tested on: ACHN
CAKI-1 = tested on: CAKI-1
CCRF-CEM = tested on: CCRF-CEM
COLO 205 = tested on: COLO 205
DLD-1 = tested on: DLD-1
DMS-114 = tested on: DMS-114
DMS-273 = tested on: DMS-273
EKVX = tested on: EKVX
HCC 2998 = tested on: HCC 2998
HCT-116 = tested on: HCT-116
HCT-15 = tested on: HCT-15
HOP-18 = tested on: HOP-18
HOP-62 = tested on: HOP-62
HOP-92 = tested on: HOP-92
HT-29 = tested on: HT-29
IGROV-1 = tested on: IGROV-1
K562 = tested on: K562
KM-20L2 = tested on: KM-20L2
LOX IMVI = tested on: LOX IMVI
LXFL 529 = tested on: LXFL 529
M14 = tested on: M14
M19-MEL = tested on: M19-MEL
MOLT-4 = tested on: MOLT-4
Malme-3M = tested on: Malme-3M
NCI-H226 = tested on: NCI-H226
NCI-H23 = tested on: NCI-H23
NCI-H460 = tested on: NCI-H460
OVCAR-3 = tested on: OVCAR-3
OVCAR-4 = tested on: OVCAR-4
OVCAR-5 = tested on: OVCAR-5
OVCAR-8 = tested on: OVCAR-8
RPMI-8226 = tested on: RPMI-8226
RXF 393 = tested on: RXF 393
SF-268 = tested on: SF-268
SF-295 = tested on: SF-295
SF-539 = tested on: SF-539
SK-MEL-28 = tested on: SK-MEL-28
SK-MEL-5 = tested on: SK-MEL-5
SK-OV-3 = tested on: SK-OV-3
SN12C = tested on: SN12C
SNB-19 = tested on: SNB-19
SNB-75 = tested on: SNB-75
SNB-78 = tested on: SNB-78
SR = tested on: SR
SW-620 = tested on: SW-620
TK-10 = tested on: TK-10
U-251 = tested on: U-251
UACC-257 = tested on: UACC-257
UACC-62 = tested on: UACC-62
UO-31 = tested on: UO-31
XF498 = tested on: XF498
KM12 = tested on: KM12
NCI-H522 = tested on: NCI-H522
SK-MEL-2 = tested on: SK-MEL-2
HL-60 = tested on: HL-60

SMILES: COC(=O)C1=C(c2ccc3c(c2)OCO3)OC(c2cc(OC)c(OC)c(OC)c2)C1 (stereo not drawn)
- GI50 (786-0): 3.61 µM (inactive)
- GI50 (A498): 2.43 µM (inactive)
- GI50 (A549): 5.77 µM (inactive)
- GI50 (ACHN): 6.98 µM (inactive)
- GI50 (CAKI-1): 2.12 µM (inactive)
- GI50 (CCRF-CEM): 3.88 µM (inactive)
- GI50 (COLO 205): 1.2 µM (inactive)
- GI50 (DLD-1): 3.58 µM (inactive)
- GI50 (DMS-114): 2.49 µM (inactive)
- GI50 (DMS-273): 1.89 µM (inactive)
- GI50 (EKVX): 2.82 µM (inactive)
- GI50 (HCC 2998): 5.77 µM (inactive)
- GI50 (HCT-116): 2.88 µM (inactive)
- GI50 (HCT-15): 0.664 µM
- GI50 (HOP-18): 16.3 µM (inactive)
- GI50 (HOP-62): > 100 µM (inactive)
- GI50 (HOP-92): 5.75 µM (inactive)
- GI50 (HT-29): 1.29 µM (inactive)
- GI50 (IGROV-1): 2.75 µM (inactive)
- GI50 (K562): 0.883 µM (active)
- GI50 (KM-20L2): 1.57 µM (inactive)
- GI50 (LOX IMVI): 5.68 µM (inactive)
- GI50 (LXFL 529): 4.79 µM (inactive)
- GI50 (M14): 3.53 µM (inactive)
- GI50 (M19-MEL): 4.86 µM (inactive)
- GI50 (MOLT-4): 6.44 µM (inactive)
- GI50 (Malme-3M): 4.74 µM (inactive)
- GI50 (NCI-H226): 3.81 µM (inactive)
- GI50 (NCI-H23): 3.21 µM (inactive)
- GI50 (NCI-H460): 3.49 µM (inactive)
- GI50 (OVCAR-3): 1.43 µM (inactive)
- GI50 (OVCAR-4): 4.83 µM (inactive)
- GI50 (OVCAR-5): > 100 µM (inactive)
- GI50 (OVCAR-8): 4.17 µM (inactive)
- GI50 (RPMI-8226): 8.87 µM (inactive)
- GI50 (RXF 393): 2.81 µM (inactive)
- GI50 (SF-268): 31.6 µM (inactive)
- GI50 (SF-295): 1.5 µM (inactive)
- GI50 (SF-539): 5.11 µM (inactive)
- GI50 (SK-MEL-28): > 100 µM (inactive)
- GI50 (SK-MEL-5): 2.49 µM (inactive)
- GI50 (SK-OV-3): 2.28 µM (inactive)
- GI50 (SN12C): 4.5 µM (inactive)
- GI50 (SNB-19): 1.59 µM (inactive)
- GI50 (SNB-75): 2.72 µM (inactive)
- GI50 (SNB-78): 10.4 µM (inactive)
- GI50 (SR): 0.667 µM (active)
- GI50 (SW-620): 0.557 µM (active)
- GI50 (TK-10): 5.2 µM (inactive)
- GI50 (U-251): 2.34 µM (inactive)
- GI50 (UACC-257): 7.18 µM (inactive)
- GI50 (UACC-62): 1.81 µM (inactive)
- GI50 (UO-31): 8.26 µM (inactive)
- GI50 (XF498): 14.5 µM (inactive)

SMILES: Cc1cc(N(CCC#N)CCC#N)ccc1/N=N/c1ccc(C(=O)O)cc1
- GI50 (786-0): > 100 µM (inactive)
- GI50 (A498): > 100 µM (inactive)
- GI50 (A549): > 100 µM (inactive)
- GI50 (ACHN): > 100 µM (inactive)
- GI50 (CAKI-1): > 100 µM (inactive)
- GI50 (COLO 205): > 100 µM (inactive)
- GI50 (DMS-114): > 100 µM (inactive)
- GI50 (DMS-273): > 100 µM (inactive)
- GI50 (EKVX): > 100 µM (inactive)
- GI50 (HCC 2998): > 100 µM (inactive)
- GI50 (HCT-15): > 100 µM
- GI50 (HOP-18): 58.9 µM (inactive)
- GI50 (HOP-62): 61 µM (inactive)
- GI50 (HT-29): > 100 µM (inactive)
- GI50 (IGROV-1): > 100 µM (inactive)
- GI50 (KM12): > 100 µM (inactive)
- GI50 (LOX IMVI): > 100 µM (inactive)
- GI50 (LXFL 529): > 100 µM (inactive)
- GI50 (M14): > 100 µM (inactive)
- GI50 (M19-MEL): > 100 µM (inactive)
- GI50 (MOLT-4): > 100 µM (inactive)
- GI50 (Malme-3M): > 100 µM (inactive)
- GI50 (NCI-H226): > 100 µM (inactive)
- GI50 (NCI-H23): > 100 µM (inactive)
- GI50 (NCI-H522): > 100 µM (inactive)
- GI50 (OVCAR-3): > 100 µM (inactive)
- GI50 (OVCAR-4): > 100 µM (inactive)
- GI50 (OVCAR-5): > 100 µM (inactive)
- GI50 (OVCAR-8): > 100 µM (inactive)
- GI50 (RPMI-8226): 99.3 µM (inactive)
- GI50 (RXF 393): > 100 µM (inactive)
- GI50 (SF-268): > 100 µM (inactive)
- GI50 (SF-295): > 100 µM (inactive)
- GI50 (SF-539): > 100 µM (inactive)
- GI50 (SK-MEL-28): > 100 µM (inactive)
- GI50 (SK-MEL-2): > 100 µM (inactive)
- GI50 (SK-MEL-5): > 100 µM (inactive)
- GI50 (SK-OV-3): > 100 µM (inactive)
- GI50 (SN12C): > 100 µM (inactive)
- GI50 (SNB-75): 36.7 µM (inactive)
- GI50 (SNB-78): > 100 µM (inactive)
- GI50 (SW-620): > 100 µM (inactive)
- GI50 (TK-10): > 100 µM (inactive)
- GI50 (U-251): > 100 µM (inactive)
- GI50 (UACC-257): > 100 µM (inactive)
- GI50 (UACC-62): > 100 µM (inactive)
- GI50 (UO-31): 77.6 µM (inactive)
- GI50 (XF498): > 100 µM (inactive)

SMILES: CC(=O)OCCc1cccnc1/C=N/O
- GI50 (786-0): > 100 µM (inactive)
- GI50 (A549): > 100 µM (inactive)
- GI50 (ACHN): > 100 µM (inactive)
- GI50 (CAKI-1): > 100 µM (inactive)
- GI50 (CCRF-CEM): > 100 µM (inactive)
- GI50 (COLO 205): > 100 µM (inactive)
- GI50 (DLD-1): > 100 µM (inactive)
- GI50 (DMS-114): > 100 µM (inactive)
- GI50 (DMS-273): > 100 µM (inactive)
- GI50 (EKVX): > 100 µM (inactive)
- GI50 (HCC 2998): > 100 µM (inactive)
- GI50 (HCT-116): > 100 µM (inactive)
- GI50 (HCT-15): > 100 µM
- GI50 (HL-60): > 100 µM (inactive)
- GI50 (HOP-18): > 100 µM (inactive)
- GI50 (HOP-62): > 100 µM (inactive)
- GI50 (HOP-92): > 100 µM (inactive)
- GI50 (HT-29): > 100 µM (inactive)
- GI50 (IGROV-1): > 100 µM (inactive)
- GI50 (K562): > 100 µM (inactive)
- GI50 (KM-20L2): > 100 µM (inactive)
- GI50 (KM12): > 100 µM (inactive)
- GI50 (LOX IMVI): > 100 µM (inactive)
- GI50 (LXFL 529): > 100 µM (inactive)
- GI50 (M14): > 100 µM (inactive)
- GI50 (M19-MEL): > 100 µM (inactive)
- GI50 (MOLT-4): > 100 µM (inactive)
- GI50 (Malme-3M): > 100 µM (inactive)
- GI50 (NCI-H226): 77.6 µM (inactive)
- GI50 (NCI-H23): > 100 µM (inactive)
- GI50 (NCI-H460): > 100 µM (inactive)
- GI50 (NCI-H522): > 100 µM (inactive)
- GI50 (OVCAR-3): > 100 µM (inactive)
- GI50 (OVCAR-4): > 100 µM (inactive)
- GI50 (OVCAR-5): > 100 µM (inactive)
- GI50 (OVCAR-8): > 100 µM (inactive)
- GI50 (RXF 393): > 100 µM (inactive)
- GI50 (SF-268): > 100 µM (inactive)
- GI50 (SF-295): > 100 µM (inactive)
- GI50 (SF-539): > 100 µM (inactive)
- GI50 (SK-MEL-28): > 100 µM (inactive)
- GI50 (SK-MEL-2): > 100 µM (inactive)
- GI50 (SK-MEL-5): > 100 µM (inactive)
- GI50 (SK-OV-3): > 100 µM (inactive)
- GI50 (SN12C): > 100 µM (inactive)
- GI50 (SNB-19): > 100 µM (inactive)
- GI50 (SNB-75): > 100 µM (inactive)
- GI50 (SNB-78): > 100 µM (inactive)
- GI50 (SR): > 100 µM (inactive)
- GI50 (SW-620): > 100 µM (inactive)
- GI50 (TK-10): > 100 µM (inactive)
- GI50 (U-251): > 100 µM (inactive)
- GI50 (UACC-257): > 100 µM (inactive)
- GI50 (UACC-62): > 100 µM (inactive)
- GI50 (UO-31): > 100 µM (inactive)
- GI50 (XF498): > 100 µM (inactive)
